This test concerns the target T1, hOT7T175 (Homo sapiens, UniProt Q969F8).
T1 construct: expressed in transfected cells
Briefly: Assay for intracellular Ca ion level-increasing activity using FLIPR. Format: cell-based. The note with it: hOT7T175/CHO cells, relative to Metastin (1-54). An outline of the steps:
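CHO/dhfr− cells stably transfected with hOT7T175, selected for high metastin response, loaded with Fluo3-AM for 1 h at 37 °C in HANKS/HBSS (pH 7.4) with probenecid. Peptides were diluted from 1×10^−3 M DMSO stock into HANKS/HBSS with 2.5 mM probenecid, 0.2% BSA, 0.1% CHAPS; intracellular Ca rise read by FLIPR.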

Numbered stars: 1 amine (or outer) side, 2 acyl side, 3 side chain; on linkers, the order of the positions; unused ones are H or OH. Square brackets hold non-standard residues; d marks the D form. Peptide text beside a SMILES is read from it. * marks the point of attachment. Phe(3R-OH) = O=C([C@@H](N[*:1])[C@H](O[*:3])c1ccccc1)[*:2]; Phe(βS-OH) = N[C@H](C(=O)O)[C@@H](O)c1ccccc1; Phe(3-Me) = Cc1cccc(C[C@H](N)C(=O)O)c1; Phe(4-Me) = Cc1ccc(C[C@H](N)C(=O)O)cc1; Desaminotyrosyl = O=C(CCc1ccc(O)cc1)*; Phe(2-Me) = Cc1ccccc1C[C@H](N)C(=O)O; Arg(Me) = CNC(=N)NCCC[C@H](N)C(=O)O; Hyp = O=C(O)[C@@H]1C[C@@H](O)CN1; αMeF = C[C@](N)(Cc1ccccc1)C(=O)O; Dab = NCC[C@H](N)C(=O)O; Nva = CCC[C@H](N)C(=O)O; Dap = NC[C@H](N)C(=O)O; azaGly = NNC(=O)O

These results are taken from patent US8404643B2, “Metastin derivatives and use thereof” (priority 2005, dated 2013).

T1 sequence (Q969F8 whole entry L364H): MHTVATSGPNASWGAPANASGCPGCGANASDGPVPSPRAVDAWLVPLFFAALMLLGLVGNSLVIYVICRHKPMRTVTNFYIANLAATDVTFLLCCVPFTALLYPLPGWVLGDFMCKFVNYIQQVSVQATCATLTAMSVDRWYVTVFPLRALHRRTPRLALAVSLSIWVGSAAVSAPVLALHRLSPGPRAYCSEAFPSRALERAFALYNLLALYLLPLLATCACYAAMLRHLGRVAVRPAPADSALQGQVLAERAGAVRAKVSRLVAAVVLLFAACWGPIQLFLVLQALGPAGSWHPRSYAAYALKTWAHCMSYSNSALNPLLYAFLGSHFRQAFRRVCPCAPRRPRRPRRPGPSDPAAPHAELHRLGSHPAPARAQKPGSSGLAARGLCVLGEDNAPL

Turning to `CNC(=N)NCCC[C@H](NC(=O)[C@H](CC(C)C)NC(=O)NNC(=O)[C@H](Cc1ccccc1)NC(=O)c1ccc(NC(N)=O)cc1)C(=O)N[C@@H](Cc1c[nH]c2ccccc12)C(N)=O` [Compound No. 860, 4-Ureidobenzoyl-Phe-AzaGly-Leu-Arg(Me)-Trp-NH2], the “Specific Activity: intracellular Ca ion level-increasing activity [specific activity to Metastin (1-54)]” value amounted to 1.3.

Turning to `CNC(=N)NCCC[C@H](NC(=O)[C@H](CC(C)C)NC(=O)NNC(=O)[C@H](Cc1ccccc1)NC(=O)[C@@H](NC(=O)[C@H](CCCNC(=N)N)NC(=O)[C@@H]1C[C@@H](O)CN1C(=O)[C@@H](Cc1ccc(O)cc1)NC(C)=O)[C@@H](C)O)C(=O)N[C@@H](Cc1c[nH]c2ccccc12)C(N)=O` [Compound No. 861, Ac-D-Tyr-Hyp-Arg-Thr-Phe-AzaGly-Leu-Arg(Me)-Trp-NH2] (Ac-[dY][Hyp]RTF[azaGly]L[Arg(Me)]W-NH2), the “Specific Activity: intracellular Ca ion level-increasing activity [specific activity to Metastin (1-54)]” value is 1.4.

Turning to `CNC(=N)NCCC[C@H](NC(=O)[C@H](CC(C)C)NC(=O)NNC(=O)[C@H](Cc1ccccc1)NC(=O)[C@@H](NC(=O)CNC(=O)[C@@H]1C[C@@H](O)CN1C(=O)[C@@H](Cc1ccc(O)cc1)NC(C)=O)[C@@H](C)O)C(=O)N[C@@H](Cc1c[nH]c2ccccc12)C(N)=O` [Compound No. 862, Ac-D-Tyr-Hyp-Gly-Thr-Phe-AzaGly-Leu-Arg(Me)-Trp-NH2] (Ac-[dY][Hyp]GTF[azaGly]L[Arg(Me)]W-NH2), the “Specific Activity: intracellular Ca ion level-increasing activity [specific activity to Metastin (1-54)]” value worked out at 0.7.

As to `CNC(=N)NCCC[C@H](NC(=O)[C@H](CC(C)C)NC(=O)NNC(=O)[C@H](Cc1ccccc1)NC(=O)[C@@H](NC(=O)[C@H](CN)NC(=O)[C@@H]1C[C@@H](O)CN1C(=O)[C@@H](Cc1ccc(O)cc1)NC(C)=O)[C@@H](C)O)C(=O)N[C@@H](Cc1c[nH]c2ccccc12)C(N)=O` [Compound No. 863, Ac-D-Tyr-Hyp-Dap-Thr-Phe-AzaGly-Leu-Arg(Me)-Trp-NH2] (Ac-[dY][Hyp][Dap]TF[azaGly]L[Arg(Me)]W-NH2), the “Specific Activity: intracellular Ca ion level-increasing activity [specific activity to Metastin (1-54)]” value amounted to 0.9.

Regarding `CNC(=N)NCCC[C@H](NC(=O)[C@H](CC(C)C)NC(=O)NNC(=O)[C@H](Cc1ccccc1)NC(=O)[C@@H](NC(=O)[C@H](CCN)NC(=O)[C@@H]1C[C@@H](O)CN1C(=O)[C@@H](Cc1ccc(O)cc1)NC(C)=O)[C@@H](C)O)C(=O)N[C@@H](Cc1c[nH]c2ccccc12)C(N)=O` [Compound No. 864, Ac-D-Tyr-Hyp-Dab-Thr-Phe-AzaGly-Leu-Arg(Me)-Trp-NH2] (Ac-[dY][Hyp][Dab]TF[azaGly]L[Arg(Me)]W-NH2), the “Specific Activity: intracellular Ca ion level-increasing activity [specific activity to Metastin (1-54)]” value is given as 1.0.

In the case of `CNC(=N)NCCC[C@H](NC(=O)[C@H](CC(C)C)NC(=O)NNC(=O)[C@](C)(Cc1ccccc1)NC(=O)[C@@H](NC(=O)[C@H](CC(N)=O)NC(=O)[C@@H]1C[C@@H](O)CN1C(=O)[C@@H](Cc1ccc(O)cc1)NC(C)=O)[C@@H](C)O)C(=O)N[C@@H](Cc1c[nH]c2ccccc12)C(N)=O` [Compound No. 868, Ac-D-Tyr-Hyp-Asn-Thr-αMePhe-AzaGly-Leu-Arg(Me)-Trp-NH2] (Ac-[dY][Hyp]NT[αMeF][azaGly]L[Arg(Me)]W-NH2), the “Specific Activity: intracellular Ca ion level-increasing activity [specific activity to Metastin (1-54)]” value was 1.4.

Turning to `CNC(=N)NCCC[C@H](NC(=O)[C@H](CC(C)C)NC(=O)NNC(=O)[C@H](Cc1ccccc1C)NC(=O)[C@@H](NC(=O)[C@H](CC(N)=O)NC(=O)[C@@H]1C[C@@H](O)CN1C(=O)[C@@H](Cc1ccc(O)cc1)NC(C)=O)[C@@H](C)O)C(=O)N[C@@H](Cc1c[nH]c2ccccc12)C(N)=O` [Compound No. 870, Ac-D-Tyr-Hyp-Asn-Thr-Phe(2Me)-AzaGly-Leu-Arg(Me)-Trp-NH2] (Ac-[dY][Hyp]NT[Phe(2-Me)][azaGly]L[Arg(Me)]W-NH2), the “Specific Activity: intracellular Ca ion level-increasing activity [specific activity to Metastin (1-54)]” value stood at 0.6.

As for `CNC(=N)NCCC[C@H](NC(=O)[C@H](CC(C)C)NC(=O)NNC(=O)[C@H](Cc1cccc(C)c1)NC(=O)[C@@H](NC(=O)[C@H](CC(N)=O)NC(=O)[C@@H]1C[C@@H](O)CN1C(=O)[C@@H](Cc1ccc(O)cc1)NC(C)=O)[C@@H](C)O)C(=O)N[C@@H](Cc1c[nH]c2ccccc12)C(N)=O` [Compound No. 872, Ac-D-Tyr-Hyp-Asn-Thr-Phe(3Me)-AzaGly-Leu-Arg(Me)-Trp-NH2] (Ac-[dY][Hyp]NT[Phe(3-Me)][azaGly]L[Arg(Me)]W-NH2), the “Specific Activity: intracellular Ca ion level-increasing activity [specific activity to Metastin (1-54)]” value came out at 0.7.

Take `CNC(=N)NCCC[C@H](NC(=O)[C@H](CC(C)C)NC(=O)NNC(=O)[C@H](Cc1ccc(C)cc1)NC(=O)[C@@H](NC(=O)[C@H](CC(N)=O)NC(=O)[C@@H]1C[C@@H](O)CN1C(=O)[C@@H](Cc1ccc(O)cc1)NC(C)=O)[C@@H](C)O)C(=O)N[C@@H](Cc1c[nH]c2ccccc12)C(N)=O` [Compound No. 874, Ac-D-Tyr-Hyp-Asn-Thr-Phe(4Me)-AzaGly-Leu-Arg(Me)-Trp-NH2] (Ac-[dY][Hyp]NT[Phe(4-Me)][azaGly]L[Arg(Me)]W-NH2): the “Specific Activity: intracellular Ca ion level-increasing activity [specific activity to Metastin (1-54)]” value worked out at 0.8.

On to `CNC(=N)NCCC[C@H](NC(=O)[C@H](CC(C)C)NC(=O)NNC(=O)[C@@H](NC(=O)[C@@H](NC(=O)[C@H](CC(N)=O)NC(=O)[C@@H]1C[C@@H](O)CN1C(=O)[C@@H](Cc1ccc(O)cc1)NC(C)=O)[C@@H](C)O)[C@H](O)c1ccccc1)C(=O)N[C@@H](Cc1c[nH]c2ccccc12)C(N)=O` [Compound No. 877, Ac-D-Tyr-Hyp-Asn-Thr-threo-Ser(3Phenyl)-AzaGly-Leu-Arg(Me)-Trp-NH2] (Ac-[dY][Hyp]NT[Phe(3R-OH)][azaGly]L[Arg(Me)]W-NH2), for which the “Specific Activity: intracellular Ca ion level-increasing activity [specific activity to Metastin (1-54)]” value stood at 1.0.

Consider `CNC(=N)NCCC[C@H](NC(=O)[C@H](CC(C)C)NC(=O)NNC(=O)[C@@H](NC(=O)[C@@H](NC(=O)[C@H](CC(N)=O)NC(=O)[C@@H]1C[C@@H](O)CN1C(=O)[C@@H](Cc1ccc(O)cc1)NC(C)=O)[C@@H](C)O)[C@@H](O)c1ccccc1)C(=O)N[C@@H](Cc1c[nH]c2ccccc12)C(N)=O` [Compound No. 882, Ac-D-Tyr-Hyp-Asn-Thr-erythro-Ser(3Phenyl)-AzaGly-Leu-Arg(Me)-Trp-NH2] (Ac-[dY][Hyp]NT[Phe(βS-OH)][azaGly]L[Arg(Me)]W-NH2), for which the “Specific Activity: intracellular Ca ion level-increasing activity [specific activity to Metastin (1-54)]” value was found to be 0.8.

For the compound `CCC[C@H](NC(=O)[C@@H]1C[C@@H](O)CN1C(=O)[C@@H](Cc1ccc(O)cc1)NC(C)=O)C(=O)N[C@H](C(=O)N[C@@H](Cc1ccccc1)C(=O)NNC(=O)N[C@@H](CC(C)C)C(=O)N[C@@H](CCCNC(=N)NC)C(=O)N[C@@H](Cc1c[nH]c2ccccc12)C(N)=O)[C@@H](C)O` [Compound No. 886, Ac-D-Tyr-Hyp-Nva-Thr-Phe-AzaGly-Leu-Arg(Me)-Trp-NH2] (Ac-[dY][Hyp][Nva]TF[azaGly]L[Arg(Me)]W-NH2), the “Specific Activity: intracellular Ca ion level-increasing activity [specific activity to Metastin (1-54)]” value stood at 1.2.

Regarding `CNC(=N)NCCC[C@H](NC(=O)[C@H](CC(C)C)NC(=O)NNC(=O)[C@H](Cc1ccccc1)NC(=O)[C@@H](NC(=O)[C@H](CC(N)=O)NC(=O)[C@@H]1C[C@@H](O)CN1C(=O)CCc1ccc(O)cc1)[C@@H](C)O)C(=O)N[C@@H](Cc1c[nH]c2ccccc12)C(N)=O` [Compound No. 888, 3-(p-Hydroxyphenyl)propionyl-Hyp-Asn-Thr-Phe-AzaGly-Leu-Arg(Me)-Trp-NH2] (Desaminotyrosyl-[Hyp]NTF[azaGly]L[Arg(Me)]W-NH2), the “Specific Activity: intracellular Ca ion level-increasing activity [specific activity to Metastin (1-54)]” value was determined as 1.1.
